The record followed here is patent EP0838465A1, “Pyridinium-substituted (lactamylvinyl)cephalosporin derivatives, their preparation and their use as antibiotics” (F. HOFFMANN-LA ROCHE AG, priority 1996, dated 1998).

Converted amounts (≈) assume the structure as drawn.

One assay concerns S.aureus 42080 (MRSA). In words: In vitro activity, minimum inhibitory concentration by agar dilution method in Mueller Hinton agar. The conditions noted are these: Staphylococcus aureus, agar dilution method on Mueller-Hinton agar, inoculum 10^4 CFU/spot. The class given is cell-based. On the procedure:
(§1) In vitro activity was determined by minimum inhibitory concentration in a microorganism spectum by the agar dilution method in Mueller Hinton agar.
(§2) The antibacterial Spectrum appears below: • MIC : Minimum Inhibiting Concentration Values
(In general: In agar dilution the substance is mixed into plates at graded concentrations.)

A further assay has as its system S.aureus 6538 (MSSA). The assay is described as above. The conditions noted are these: Staphylococcus aureus, agar dilution method on Mueller-Hinton agar, inoculum 10^4 CFU/spot. The class given is cell-based. The protocol: as §1, §2
A further assay deals with MRSA (n=17). In words: In vitro activity, MIC90 by agar dilution method in Mueller Hinton agar. The class given is cell-based, S. aureus. To be noted: Staphylococcus aureus, agar dilution method on Mueller-Hinton agar, inoculum 10^5 CFU/spot. The protocol: as §1, §2

As usually defined, the MIC is the smallest concentration in the dilution series that meets the test's criterion for growth inhibition. High values mean a need for much substance, low ones inhibition by little substance. The MIC90 is the lowest concentration that inhibits either 90% of growth or 90% of the strains tested, depending on the study. `Nc1nc(/C(=N/O)C(=O)N[C@@H]2C(=O)N3C(C(=O)[O-])=C(/C=C4\CCN(Cc5cc[n+](CC(=O)Nc6ccc(O)cc6)cc5)C4=O)CS[C@H]23)cs1` [A, (6R,7R)-7-[(Z)-2-(2-Amino-thiazol-4-yl)-2-hydroxyimino-acetylamino]-3-[(E)-1-[1-[(4-hydroxy-phenylcarbamoyl)-methyl]-pyridin-1-ium-4-ylmethyl]-2-oxo-pyrrolidin-3-ylidenemethyl]-8-oxo-5-thia-1-aza-bicyclo[4.2.0]oct-2-ene-2-carboxylate]: the MIC against S.aureus 42080 (MRSA) is 4 µg/mL (≈ 5.68 µM); against S.aureus 6538 (MSSA), 0.5 µg/mL (≈ 0.709 µM). This compound also gave an MIC90 against MRSA (n=17) of 8 µg/mL (≈ 11.4 µM).
For `Nc1nc(/C(=N/O)C(=O)N[C@@H]2C(=O)N3C(C(=O)[O-])=C(/C=C4\CCN(Cc5cc[n+](CC(=O)Nc6ccc(O)cc6)cc5)C4=O)CS[C@H]23)ns1` [B, (6R,7R)-7-[(Z)-2-(5-Amino-[1,2,4]thiadiazol-3-yl)-2-hydroxyimino-acetylamino]-3-[(E)-1-[1-[(4-hydroxy-phenylcarbamoyl)-methyl]-pyridin-1-ium-4-ylmethyl]-2-oxo-pyrrolidin-3-ylidenemethyl]-8-oxo-5-thia-1-aza-bicyclo[4.2.0]-oct-2-ene-2-carboxylate], the MIC was found to be 4 µg/mL (≈ 5.67 µM) in the assay with S.aureus 42080 (MRSA) and 0.5 µg/mL (≈ 0.708 µM) in the assay with S.aureus 6538 (MSSA). In the assay on MRSA (n=17), this compound came in with an MIC90 of 4 µg/mL (≈ 5.67 µM).
Take `Nc1nc(/C(=N/O)C(=O)N[C@@H]2C(=O)N3C(C(=O)[O-])=C(/C=C4\CCN(Cc5cc[n+](CC(=O)Nc6ccc(O)c(F)c6)cc5)C4=O)CS[C@H]23)cs1` [C, (6R,7R)-7-[(Z)-2-(2-Amino-thiazol-4-yl)-2-hydroxyimino-acetylamino]-3-[(E)-1-[1-[(3-fluoro-4-hydroxy-phenylcarbamoyl)-methyl]-pyridin-1-ium-4-ylmethyl]-2-oxo-pyrrolidin-3-ylidenemethyl]-8-oxo-5-thia-1-aza-bicyclo[4.2.0]oct-2-ene-2-carboxylate]: the MIC with S.aureus 42080 (MRSA) came to 4 µg/mL (≈ 5.53 µM); against S.aureus 6538 (MSSA) it was 1 µg/mL (≈ 1.38 µM). The compound further gave an MIC90 with MRSA (n=17) of 4 µg/mL (≈ 5.53 µM).
As for `Nc1nc(/C(=N/O)C(=O)N[C@@H]2C(=O)N3C(C(=O)[O-])=C(/C=C4\CCN(Cc5cc[n+](CC(=O)Nc6ccc(O)c(F)c6)cc5)C4=O)CS[C@H]23)ns1` [D, (6R,7R)-7-[(Z)-2-(5-Amino-[1,2,4]thiadiazol-3-yl)-2-hydroxyimino-acetylamino]-3-[(E)-1-[1-[(3-fluoro-4-hydroxy-phenylcarbamoyl)-methyl]-pyridin-1-ium-4-ylmethyl]-2-oxo-pyrrolidin-3-ylidenemethyl]-8-oxo-5-thia-1-aza-bicyclo[4.2.0]oct-2-ene-2-carboxylate], the minimal inhibitory concentration (MIC) in the assay with S.aureus 42080 (MRSA) stood at 4 µg/mL (≈ 5.53 µM); with S.aureus 6538 (MSSA), 1 µg/mL (≈ 1.38 µM). The MIC90 against MRSA (n=17) turned out to be 4 µg/mL (≈ 5.53 µM).
Take `Nc1nc(/C(=N/O)C(=O)N[C@@H]2C(=O)N3C(C(=O)[O-])=C(/C=C4\CCN(Cc5cc[n+](CC(=O)Nc6ccc(O)c(Cl)c6)cc5)C4=O)CS[C@H]23)cs1` [E, (6R,7R)-7-[(Z)-2-(2-Amino-thiazol-4-yl)-2-hydroxyimino-acetylamino]-3-[(E)-1-[1-[(3-chloro-4-hydroxy-phenylcarbamoyl)-methyl]-pyridin-1-ium-4-ylmethyl]-2-oxo-pyrrolidin-3-ylidenemethyl]-8-oxo-5-thia-1-aza-bicyclo[4.2.0]oct-2-ene-2-carboxylate]: the minimum inhibitory concentration (MIC) with S.aureus 42080 (MRSA) is 4 µg/mL (≈ 5.41 µM); against S.aureus 6538 (MSSA), 0.5 µg/mL (≈ 0.676 µM). Also, the MIC90 in the assay on MRSA (n=17) was 8 µg/mL (≈ 10.8 µM).
Take `COc1cc(NC(=O)C[n+]2ccc(CN3CC/C(=C\C4=C(C(=O)[O-])N5C(=O)[C@@H](NC(=O)/C(=N\O)c6csc(N)n6)[C@H]5SC4)C3=O)cc2)ccc1O` [F, (6R,7R)-7-[(Z)-2-(2-Amino-thiazol-4-yl)-2-hydroxyimino-acetylamino]-3-[(E)-1-[1-[(4-hydroxy-3-methoxy-phenylcarbamoyl)-methyl]-pyridin-1-ium-4-ylmethyl]-2-oxo-pyrrolidin-3-ylidenemethyl]-8-oxo-5-thia-1-aza-bicyclo[4.2.0]oct-2-ene-2-carboxylate]: the MIC stood at 8 µg/mL (≈ 10.9 µM) against S.aureus 42080 (MRSA) and 1 µg/mL (≈ 1.36 µM) against S.aureus 6538 (MSSA). This compound also registered an MIC90 in the assay on MRSA (n=17) of 8 µg/mL (≈ 10.9 µM).
For `Nc1nc(/C(=N/O)C(=O)N[C@@H]2C(=O)N3C(C(=O)[O-])=C(/C=C4\CCN(Cc5ccc[n+](CC(=O)Nc6ccc(O)c(F)c6)c5)C4=O)CS[C@H]23)cs1` [G, (6R,7R)-7-[(Z)-2-(2-Amino-thiazol-4-yl)-2-hydroxyimino-acetylamino]-3-[(E)-1-[1-[(3-fluoro-4-hydroxy-phenylcarbamoyl)-methyl]-pyridin-1-ium-3-ylmethyl]-2-oxo-pyrrolidin-3-ylidenemethyl]-8-oxo-5-thia-1-aza-bicyclo[4.2.0]oct-2-ene-2-carboxylate], the MIC in the assay with S.aureus 42080 (MRSA) amounted to 4 µg/mL (≈ 5.53 µM); in the assay with S.aureus 6538 (MSSA), 0.5 µg/mL (≈ 0.692 µM). The MIC90 with MRSA (n=17) stood at 8 µg/mL (≈ 11.1 µM).
